Results from ChEMBL document CHEMBL3885881, “DrugMatrix”.

Organism: Rattus norvegicus
Assay: DrugMatrix - Regimen: Daily Repeat
Assay type: toxicity, organism-based, Sprague-Dawley
Set-up: regimen Daily Repeat, gender Male, age 6-8 weeks
Conditions: in vivo, po, route oral GAVAGE, […]; for ABSOLUTE BASOPHIL / ABSOLUTE EOSINOPHIL / ABSOLUTE LYMPHOCYTE / ABSOLUTE MONOCYTE / ABSOLUTE SEGMENTED NEUTROPHIL / BASOPHIL / EOSINOPHIL / ERYTHROCYTE COUNT / HEMATOCRIT / HEMOGLOBIN / LEUKOCYTE COUNT / LYMPHOCYTE / MEAN CORPUSCULAR HEMOGLOBIN / MEAN CORPUSCULAR HEMOGLOBIN CONCENTRATION / MEAN CORPUSCULAR VOLUME / MONOCYTE / NEUTROPHIL / NUCLEATED RED BLOOD CELLS / PLATELET COUNT: tissue Blood; for ALANINE AMINOTRANSFERASE / ALBUMIN / ALKALINE PHOSPHATASE / ASPARTATE AMINOTRANSFERASE / BLOOD UREA NITROGEN / CARBON DIOXIDE / CHLORIDE / CHOLESTEROL / CREATINE PHOSPHOKINASE / CREATININE / GLUCOSE / LACTATE DEHYDROGENASE / LIPASE / PHOSPHORUS / POTASSIUM / SODIUM / TOTAL BILIRUBIN / TOTAL PROTEIN / URIC ACID: tissue Plasma
[1] = 20 mg/kg, 120 h, dose level Low, time 5 day
[2] = 200 mg/kg, 72 h, dose level High, time 3 day
[3] = 200 mg/kg, 120 h, dose level High, time 5 day
[4] = 200 mg/kg, dose level High, time 28 day

CCCCCCCCCc1ccc(O)cc1 [4-NONYLPHENOL]
ABSOLUTE BASOPHIL [1]: 0 CELLS/uL | ABSOLUTE EOSINOPHIL [1]: 0 CELLS/uL | ABSOLUTE LYMPHOCYTE [1]: 17193.33 CELLS/uL | ABSOLUTE MONOCYTE [1]: 138.33 CELLS/uL | ABSOLUTE SEGMENTED NEUTROPHIL [1]: 1901.67 CELLS/uL | BASOPHIL [1]: 0% | EOSINOPHIL [1]: 0% | ERYTHROCYTE COUNT [1]: 5.43 x10E6/uL | HEMATOCRIT [1]: 34.2% | HEMOGLOBIN [1]: 13.17 G/DL | LEUKOCYTE COUNT [1]: 19.23 x10E3/uL | LYMPHOCYTE [1]: 89.67% | MEAN CORPUSCULAR HEMOGLOBIN [1]: 24.2 pg | MEAN CORPUSCULAR HEMOGLOBIN CONCENTRATION [1]: 38.5 G/DL | MEAN CORPUSCULAR VOLUME [1]: 62.9 fL | MONOCYTE [1]: 0.67% | NEUTROPHIL [1]: 9.67% | NUCLEATED RED BLOOD CELLS [1]: 0 /100WBC | PLATELET COUNT [1]: 1124 x10E3/uL | ALANINE AMINOTRANSFERASE [1]: 65.33 u/L | ALBUMIN [1]: 3.77 G/DL | ALKALINE PHOSPHATASE [1]: 413 u/L | ASPARTATE AMINOTRANSFERASE [1]: 82.67 u/L | BLOOD UREA NITROGEN [1]: 15.67 mg/dL | CARBON DIOXIDE [1]: 25.67 mmol/L | CHLORIDE [1]: 102.33 MEQ/L | CHOLESTEROL [1]: 56.33 mg/dL | CREATINE PHOSPHOKINASE [1]: 278 u/L | CREATININE [1]: 0.21 mg/dL | GLUCOSE [1]: 202.33 mg/dL | LACTATE DEHYDROGENASE [1]: 147 u/L | LIPASE [1]: 10.67 u/L | PHOSPHORUS [1]: 10.77 mg/dL | POTASSIUM [1]: 5.35 MEQ/L | SODIUM [1]: 142.1 MEQ/L | TOTAL BILIRUBIN [1]: 0.2 mg/dL | TOTAL PROTEIN [1]: 5.57 G/DL | URIC ACID [1]: 1.3 mg/dL | ABSOLUTE BASOPHIL [2]: 0 CELLS/uL | ABSOLUTE EOSINOPHIL [2]: 0 CELLS/uL | ABSOLUTE LYMPHOCYTE [2]: 7018 CELLS/uL | ABSOLUTE MONOCYTE [2]: 153.33 CELLS/uL | ABSOLUTE SEGMENTED NEUTROPHIL [2]: 495.33 CELLS/uL | BASOPHIL [2]: 0% | EOSINOPHIL [2]: 0% | ERYTHROCYTE COUNT [2]: 5.58 x10E6/uL | HEMATOCRIT [2]: 35.4% | HEMOGLOBIN [2]: 13.8 G/DL | LEUKOCYTE COUNT [2]: 7.67 x10E3/uL | LYMPHOCYTE [2]: 92% | MEAN CORPUSCULAR HEMOGLOBIN [2]: 24.73 pg | MEAN CORPUSCULAR HEMOGLOBIN CONCENTRATION [2]: 39 G/DL | MEAN CORPUSCULAR VOLUME [2]: 63.47 fL | MONOCYTE [2]: 2% | NEUTROPHIL [2]: 6% | NUCLEATED RED BLOOD CELLS [2]: 0 /100WBC | PLATELET COUNT [2]: 1128 x10E3/uL | ALANINE AMINOTRANSFERASE [2]: 81.33 u/L | ALBUMIN [2]: 3.77 G/DL | ALKALINE PHOSPHATASE [2]: 503.67 u/L | ASPARTATE AMINOTRANSFERASE [2]: 95.67 u/L | BLOOD UREA NITROGEN [2]: 14.33 mg/dL | CARBON DIOXIDE [2]: 32 mmol/L | CHLORIDE [2]: 103 MEQ/L | CHOLESTEROL [2]: 45.33 mg/dL | CREATINE PHOSPHOKINASE [2]: 276.67 u/L | CREATININE [2]: 0.21 mg/dL | GLUCOSE [2]: 139 mg/dL | LACTATE DEHYDROGENASE [2]: 138.67 u/L | LIPASE [2]: 10 u/L | PHOSPHORUS [2]: 10.23 mg/dL | POTASSIUM [2]: 5.46 MEQ/L | SODIUM [2]: 145.47 MEQ/L | TOTAL BILIRUBIN [2]: 0.1 mg/dL | TOTAL PROTEIN [2]: 5.47 G/DL | URIC ACID [2]: 0.9 mg/dL | ABSOLUTE BASOPHIL [3]: 0 CELLS/uL | ABSOLUTE EOSINOPHIL [3]: 0 CELLS/uL | ABSOLUTE LYMPHOCYTE [3]: 11098.67 CELLS/uL | ABSOLUTE MONOCYTE [3]: 165.33 CELLS/uL | ABSOLUTE SEGMENTED NEUTROPHIL [3]: 402.67 CELLS/uL | NUCLEATED RED BLOOD CELLS [3]: 0 /100WBC | CARBON DIOXIDE [3]: 26.67 mmol/L | LACTATE DEHYDROGENASE [3]: 116.33 u/L | LIPASE [3]: 10.33 u/L | URIC ACID [3]: 1.43 mg/dL | BASOPHIL [4]: 0.42% | EOSINOPHIL [4]: 0.61% | ERYTHROCYTE COUNT [4]: 8.21 x10E6/uL | HEMATOCRIT [4]: 48.61% | HEMOGLOBIN [4]: 16.26 G/DL | LEUKOCYTE COUNT [4]: 11.53 x10E3/uL | LYMPHOCYTE [4]: 85.82% | MEAN CORPUSCULAR HEMOGLOBIN [4]: 19.84 pg | MEAN CORPUSCULAR HEMOGLOBIN CONCENTRATION [4]: 33.5 G/DL | MEAN CORPUSCULAR VOLUME [4]: 59.24 fL | MONOCYTE [4]: 1.34% | NEUTROPHIL [4]: 10.54% | PLATELET COUNT [4]: 1292.8 x10E3/uL | ALANINE AMINOTRANSFERASE [4]: 29.3 u/L | ALBUMIN [4]: 3.91 G/DL | ALKALINE PHOSPHATASE [4]: 186.6 u/L | ASPARTATE AMINOTRANSFERASE [4]: 70.1 u/L | BLOOD UREA NITROGEN [4]: 11.8 mg/dL | CHLORIDE [4]: 107.1 MEQ/L | CHOLESTEROL [4]: 66 mg/dL | CREATINE PHOSPHOKINASE [4]: 191.6 u/L | CREATININE [4]: 0.46 mg/dL | GLUCOSE [4]: 145.6 mg/dL | PHOSPHORUS [4]: 12.09 mg/dL | POTASSIUM [4]: 6.67 MEQ/L | SODIUM [4]: 149 MEQ/L | TOTAL BILIRUBIN [4]: 0.23 mg/dL | TOTAL PROTEIN [4]: 6.7 G/DL
